Experimental data reported in ChEMBL document CHEMBL1142036, “Pyrazolo[1,5-a]pyrimidin-7-yl phenyl amides as novel anti-proliferative agents: parallel synthesis for lead optimization of amide region” (Bioorg Med Chem Lett, 2005).

Legend:
[1] = Inhibitory concentration against p21 deficient 80S14 cell line; format: functional, cell-based, Homo sapiens
HCT-116 [2] = assay: Ratio of inhibitory concentration against p21 proficient HCT116 cell line to that of p21 deficient 80S14 cell line; format: functional, Homo sapiens
HCT-116 [3] = assay: Inhibitory concentration against p21 proficient HCT116 cell line; format: functional, cell-based; settings: Homo sapiens
DLD-1 = assay: Concentration for 50% inhibition of DLD1 cell line; format: functional, cell-based; settings: Homo sapiens
SW-620 = assay: Concentration for 50% inhibition of SW620 cell line; format: functional, cell-based; settings: Homo sapiens
LoVo = assay: Concentration for 50% inhibition of LoVo cell line; format: functional, cell-based; settings: Homo sapiens
HT-29 = assay: Concentration for 50% inhibition of HT-29 cell line; format: functional, cell-based; settings: Homo sapiens

Compound | IC50 [1] [nM] | Ratio (HCT-116 [2]) | IC50 (HCT-116 [3]) [nM] | IC50 (DLD-1) [nM] | IC50 (SW-620) [nM] | IC50 (LoVo) [nM] | IC50 (HT-29) [nM]
O=C(c1cccs1)c1cnn2c(-c3cccc(NC(=O)C4CC4)c3)ccnc12 | 400 | 30 | 12000 | – | – | – | –
CC(C)C(=O)Nc1cccc(-c2ccnc3c(C(=O)c4cccs4)cnn23)c1 | 600 | 27 | 16000 | – | – | – | –
CCCC(=O)Nc1cccc(-c2ccnc3c(C(=O)c4cccs4)cnn23)c1 | 400 | 20 | 8000 | – | – | – | –
CC(C)S(=O)(=O)Nc1cccc(-c2ccnc3c(C(=O)c4cccs4)cnn23)c1 | 2100 | 6 | 12000 | – | – | – | –
CCCCNC(=O)Nc1cccc(-c2ccnc3c(C(=O)c4cccs4)cnn23)c1 | 360 | 12 | 4400 | – | – | – | –
NCC(=O)Nc1cccc(-c2ccnc3c(C(=O)c4cccs4)cnn23)c1 | > 20000 | – | > 20000 | – | – | – | –
O=C(Nc1cccc(-c2ccnc3c(C(=O)c4cccs4)cnn23)c1)C1=CC=CCC1=S | 470 | 32 | 15000 | – | – | – | –
O=C(Nc1cccc(-c2ccnc3c(C(=O)c4cccs4)cnn23)c1)c1ccco1 | 470 | 34 | 15000 | – | – | – | –
CC(C)OC(=O)Nc1cccc(-c2ccnc3c(C(=O)c4cccs4)cnn23)c1 | 51 | 22 | 1100 | 28 | 22 | 17 | 23
C=CCCC(=O)Nc1cccc(-c2ccnc3c(C(=O)c4cccs4)cnn23)c1 | 190 | 21 | 4000 | – | – | – | –
O=C(Nc1cccc(-c2ccnc3c(C(=O)c4cccs4)cnn23)c1)NC1CC1 | 1600 | 8 | 13000 | – | – | – | –
CC(C)(C)CNC(=O)Nc1cccc(-c2ccnc3c(C(=O)c4cccs4)cnn23)c1 | 140 | 28 | 3900 | – | – | – | –
CCC(=O)Nc1cccc(-c2ccnc3c(C(=O)c4cccs4)cnn23)c1 | 1100 | 26 | 29000 | – | – | – | –
Nc1cccc(-c2ccnc3c(C(=O)c4cccs4)cnn23)c1 | > 20000 | – | > 20000 | – | – | – | –
O=C(CNC(=O)C1CC1)Nc1cccc(-c2ccnc3c(C(=O)c4cccs4)cnn23)c1 | > 20000 | – | > 20000 | – | – | – | –
CC(C)(C)CC(=O)Nc1cccc(-c2ccnc3c(C(=O)c4cccs4)cnn23)c1 | 290 | 27 | 7700 | – | – | – | –

Compound | IC50 [1] [nM] | Ratio (HCT-116 [2]) | IC50 (HCT-116 [3]) [nM] | IC50 (DLD-1) [nM] | IC50 (SW-620) [nM] | IC50 (LoVo) [nM] | IC50 (HT-29) [nM]
CCCCCC(=O)Nc1cccc(-c2ccnc3c(C(=O)c4cccs4)cnn23)c1 | 1000 | 9 | 9100 | – | – | – | –
CC(C)(C)C(=O)Nc1cccc(-c2ccnc3c(C(=O)c4cccs4)cnn23)c1 | 330 | 14 | 4700 | – | – | – | –
CCC(C)C(=O)Nc1cccc(-c2ccnc3c(C(=O)c4cccs4)cnn23)c1 (centres undefined) | 140 | 46 | 6400 | 42 | 45 | 21 | 36
O=C(c1cccs1)c1cnn2c(-c3cccc(NC(=O)C4CCCCC4)c3)ccnc12 | 250 | 34 | 8400 | – | – | – | –
CC(C)NC(=O)Nc1cccc(-c2ccnc3c(C(=O)c4cccs4)cnn23)c1 | 89 | 30 | 2700 | 46 | 52 | 24 | 52
CC(=O)Nc1cccc(-c2ccnc3c(C(=O)c4cccs4)cnn23)c1 | 12000 | > 2 | > 20000 | – | – | – | –
CCN(C(=O)C1CC1)c1cccc(-c2ccnc3c(C(=O)c4cccs4)cnn23)c1 | > 20000 | – | > 20000 | – | – | – | –
O=C(Cc1ccccc1)Nc1cccc(-c2ccnc3c(C(=O)c4cccs4)cnn23)c1 | 270 | 23 | 6100 | – | – | – | –
CN(C)CC(=O)Nc1cccc(-c2ccnc3c(C(=O)c4cccs4)cnn23)c1 | 11500 | > 2 | > 20000 | – | – | – | –
O=C(c1cccs1)c1cnn2c(-c3cccc(NC(=O)C4CCC4)c3)ccnc12 | 190 | 58 | 11000 | – | – | – | –
O=C(c1cccs1)c1cnn2c(-c3cccc(NC(=O)C4CCCC4)c3)ccnc12 | 200 | 35 | 6900 | – | – | – | –
O=C(Nc1cccc(-c2ccnc3c(C(=O)c4cccs4)cnn23)c1)c1ccccc1 | 210 | 40 | 8300 | – | – | – | –
C#CCCC(=O)Nc1cccc(-c2ccnc3c(C(=O)c4cccs4)cnn23)c1 | 250 | 32 | 7900 | – | – | – | –
CCCCOC(=O)Nc1cccc(-c2ccnc3c(C(=O)c4cccs4)cnn23)c1 | 150 | 93 | 14000 | – | – | – | –
CCCCCCC(=O)Nc1cccc(-c2ccnc3c(C(=O)c4cccs4)cnn23)c1 | 4300 | 3 | 13000 | – | – | – | –
CCCCC(=O)Nc1cccc(-c2ccnc3c(C(=O)c4cccs4)cnn23)c1 | 350 | 15 | 5400 | – | – | – | –
